The values below are quoted from earlier work in patent US20230030915A1, “Pet Food Compositions” (Hill's Pet Nutrition, Inc., priority 2019, published 2023).

For this data set, the system named is piglets.

`C[N+](C)(C)CC(=O)O` [Betaine, Glycine betaine]: the margin of safety result (at 2 000 mg/kg complete feed) is listed as “below 5”. In addition, the “maximum supplementation rate at which safe” value (via feed) is recorded as 2 000 mg/kg complete feed.
